In brackets after ≈: the same amount, converted by molar mass. Where two headings read alike, the source gives them in different places.
Assays:
Botrtyis cinerea (Bc) = assay: In vitro pathogen growth inhibition assay, Bc; type: cell-based; settings: 48 h
How it was run: (§1)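 Spores in 17% V8 liquid medium, or 1.5 mm Rs mycelial plugs in ¼ PDB, incubated with compound; final concentration checked by OD600 for precipitation. OD readings at 24 and 48 h, blank-subtracted, plus visual ratings; value is concentration giving ≥90% growth inhibition.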

Phakopsora pachyrhizi = assay: Foliar protection test for Asian soybean rust control; type: in vivo; settings: foliar application to soybean (Glycine max AG4832), percent disease area evaluated 14 days later
[1] = tested on: Blumeria graminis f. sp. hordei; assay: Foliar protection test for barley powdery mildew control; type: in vivo; settings: foliar spray on Hordeum vulgare cv. Perry, inoculated 24 hours after treatment, evaluated 7 days later
Experimental: Plants (Hordeum vulgare cv. Perry) were grown for 6 days in 2-inch square pots containing Metromix 200 medium amended with fertilizer. […] After inoculation with the pathogen of Blumeria graminis f. sp. hordei, plants were kept at conditions of 20 to 22° C., 70% relative humidity, and 200 uM of light to facilitate infection and disease development. […] An atomizer was used for applying the solution onto both sides of the leaves until thoroughly wetted. […] At 24 hours after treatment, the plants were moved to a cooler chamber and inoculated by shaking well-colonized, untreated stock plants above the treated plants. This allowed producing a settling cloud of spores and resulting in uniform infection. Efficacy was evaluated in 7 days later by examining leaves for colonization and growth of mildew. Table 4 lists the results of barley powdery mildew control at a compound concentration of 10 ppm or lower.

Puccinia triticina = assay: Foliar protection test for wheat leaf rust control; type: in vivo; settings: foliar application to wheat (Triticum aestivum cv. Winterhawk), evaluated 10 days later
[2] = tested on: Collectotrichum graminicola (Cg); assay: In vitro pathogen growth inhibition assay, Cg; type: cell-based; settings: 48 h
How it was run: as §1

[3] = tested on: Fusarium virguliforme (Fv); assay: In vitro pathogen growth inhibition assay, Fv; type: cell-based; settings: ≥90% inhibition, 48 hours vs 2% DMSO control, read-out: Compound Concentration (ppm) sufficient for ≥90% inhibition of growth, Fv
How it was run: as §1

[4] = tested on: Phytophthora capsici (Pc); assay: In vitro pathogen growth inhibition assay, Pc; type: cell-based; settings: 48 h
How it was run: as §1

Sphaerotheca fuliginea = assay: Foliar protection for cucumber powdery mildew control; type: in vivo; settings: foliar spray on Cucumis sativus cv. Straight Eight, inoculated 24 hours after treatment, evaluated 7 days later
Experimental: Plants (Cucumis sativus cv. Straight Eight) were grown for 10 days in 2.5-inch square pots containing Metromix 200 medium amended with fertilizer. For propagation, plants were maintained in a growth chamber at conditions of 23 to 27° C., 16 hour light cycle, ambient humidity, and with sub-irrigation as needed. After inoculation with the pathogen of Sphaerotheca fuliginea, plants were kept at conditions of 23 to 27° C., 16 hour light cycle, 60% relative humidity, and with sub-irrigation as needed to facilitate infection and disease development. […] An atomizer was used for applying the solution onto both sides of the leaves until thoroughly wetted. […] At 24 hours after treatment, the plants were moved to a cooler chamber and inoculated by shaking well-colonized, untreated stock plants above the treated plants. This allowed producing a settling cloud of spores and resulting in uniform infection. Inoculated plants were kept near other sporulating stock plants to allow for infection of newly emerging leaves. Efficacy was evaluated in 7 days later by examining leaves for colonization and growth of mildew. Table 5 lists the results of cucumber powdery mildew control at a compound concentration of 10 ppm or lower.

[5] = tested on: Fusarium moniliforme (Fm); assay: In vitro pathogen growth inhibition assay, Fm; type: cell-based; settings: Fusarium verticillioides
How it was run: as §1

[6] = tested on: Mycosphaerella graminicola (synthetic Septoria tritici); assay: Foliar protection test for wheat septoria leaf blotch control; type: in vivo; settings: foliar spray on Triticum aestivum cv. WinterHawk, inoculated 1 hour after treatment, evaluated 16 days later
Septoria tritici (St) = assay: In vitro pathogen growth inhibition assay, St; type: cell-based; settings: Zymoseptoria tritici, 48 h
How it was run: as §1

Diplodia maydis (Dm) = assay: In vitro pathogen growth inhibition assay, Dm; type: cell-based; settings: Stenocarpella maydis, 48 h
How it was run: as §1

Rhizoctonia solani (Rs) = assay: In vitro pathogen growth inhibition assay, Rs (mycelial plugs); type: cell-based; settings: Rhizoctonia solani, 48 h, mycelial plugs
How it was run: as §1

Fusarium graminearum = type: in vivo; settings: spray on flowering Triticum aestivum cv. Samson, inoculated 24 hours after treatment, evaluated 14 days later
[7] = ≥90% inhibition, 48 hours vs 2% DMSO control, read-out: Compound Concentration (ppm) sufficient for ≥90% inhibition of growth, Bc
[8] = ≥90% inhibition, 48 hours vs 2% DMSO control, read-out: Compound Concentration (ppm) sufficient for ≥90% inhibition of growth, Cg
[9] = ≥90% inhibition, 48 hours vs 2% DMSO control, read-out: Compound Concentration (ppm) sufficient for ≥90% inhibition of growth, Pc
[10] = ≥90% inhibition, 48 hours vs 2% DMSO control, read-out: Compound Concentration (ppm) sufficient for ≥90% inhibition of growth, Fm
[11] = ≥90% inhibition, 48 hours vs 2% DMSO control, read-out: Compound Concentration (ppm) sufficient for ≥90% inhibition of growth, St
[12] = ≥90% inhibition, 48 hours vs 2% DMSO control, read-out: Compound Concentration (ppm) sufficient for ≥90% inhibition of growth, Dm
[13] = ≥90% inhibition, 48 hours vs 2% DMSO control, read-out: Compound Concentration (ppm) sufficient for ≥90% inhibition of growth, Rs

SMILES | IC90 (Botrtyis cinerea (Bc); [7]) [µg/mL] | Asian Soybean Rust Control at a compound concentration of 25 ppm or lower (Phakopsora pachyrhizi) | Barley Powdery Mildew Control at a compound concentration of 10 ppm or lower [1] | Wheat Leaf Rust Control at a compound concentration of 10 ppm or lower (Puccinia triticina) | IC90 [2, 8] [µg/mL] | IC90 [3] [µg/mL] | IC90 [4, 9] [µg/mL] | Cucumber Powdery Mildew Control at a compound concentration of 10 ppm or lower (Sphaerotheca fuliginea) | IC90 [5, 10] [µg/mL] | Septoria Leaf Blotch Control at a compound concentration of 25 ppm or lower [6] | IC90 (Septoria tritici (St); [11]) [µg/mL] | IC90 (Diplodia maydis (Dm); [12]) [µg/mL] | IC90 (Rhizoctonia solani (Rs); [13]) [µg/mL] | Wheat Fusarium Head Blight Control at a compound concentration of 25 ppm or lower (Fusarium graminearum) | other results
COc1ccc(F)cc1[C@H](Cn1c(=O)n(C(C)(C)C(=O)NC(C)C)c(=O)c2c(C)c(-n3nccn3)sc21)OC1CCOCC1 [Compound I-030, (R)-2-(1-(2-(5-fluoro-2-methoxyphenyl)-2-((tetrahydro-2H-pyran-4-yl)oxy)ethyl)-5-methyl-2,4-dioxo-6-(2H-1,2,3-triazol-2-yl)-1,4-dihydrothieno[2,3-d]pyrimidin-3 (2H)-yl)-N-isopropyl-2-methylpropanamide] | 0.4 (≈ 0.636 µM) | A (from 70% to 84% control of Asian soybean rust) | AA (≥85% control of barley powdery mildew) | AA (≥85% control of wheat leaf rust) | 0.4 (≈ 0.636 µM) | 0.4 (≈ 0.636 µM) | 50 (≈ 79.5 µM) | AA (≥85% control of cucumber powdery mildew) | 0.08 (≈ 0.127 µM) | B (from 50 to 69% control of wheat septoria leaf blotch) | ≥ 2 | ≥ 0.4 | 0.08 (≈ 0.127 µM) | B (from 50 to 69% control of wheat fusarium head blight) | –
COc1ccccc1[C@H](Cn1c(=O)n(C(C)(C)C(=O)N2CCCC2)c(=O)c2c(C)c(-n3nccn3)sc21)OC1CCOCC1 [Compound I-034, (R)-1-(2-(2-methoxyphenyl)-2-((tetrahydro-2H-pyran-4-yl)oxy)ethyl)-5-methyl-3-(2-methyl-1-oxo-1-(pyrrolidin-1-yl)propan-2-yl)-6-(2H-1,2,3-triazol-2-yl)thieno[2,3-d]pyrimidine-2,4(1H,3H)-dione] | 0.4 (≈ 0.642 µM) | AA (≥85% control of Asian soybean rust) | AA (≥85% control of barley powdery mildew) | AA (≥85% control of wheat leaf rust) | ≥ 0.4 | 0.4 (≈ 0.642 µM) | ≥ 10 | AA (≥85% control of cucumber powdery mildew) | 0.08 (≈ 0.128 µM) | B (from 50 to 69% control of wheat septoria leaf blotch) | ≥ 2 | ≥ 0.4 | 0.08 (≈ 0.128 µM) | C (from 25 to 49% control of wheat fusarium head blight) | –
COCCO[C@@H](Cn1c(=O)n(C(C)C(=O)NC(C)C)c(=O)c2c(C)c(-n3nccn3)sc21)c1cc(F)ccc1OC (stereo partly drawn) [Compound I-082, 2-(1-((R)-2-(5-fluoro-2-methoxyphenyl)-2-(2-methoxyethoxy)ethyl)-5-methyl-2,4-dioxo-6-(2H-1,2,3-triazol-2-yl)-1,4-dihydrothieno[2,3-d]pyrimidin-3 (2H)-yl)-N-isopropylpropanamide] | 2 (≈ 3.4 µM) | B (from 50 to 69% control of Asian soybean rust) | AA (≥85% control of barley powdery mildew) | B (from 50 to 69% control of wheat leaf rust) | 0.4 (≈ 0.68 µM) | 0.4 (≈ 0.68 µM) | 10 (≈ 17 µM) | AA (≥85% control of cucumber powdery mildew) | 0.08 (≈ 0.136 µM) | AA (≥85% control of wheat septoria leaf blotch) | 30 (≈ 51 µM) | 0.4 (≈ 0.68 µM) | 0.24 (≈ 0.408 µM) | C (from 25 to 49% control of wheat fusarium head blight) | –
COc1ccc(F)cc1[C@H](Cn1c(=O)n([C@@H](C)C(=O)N(C)C(C)C)c(=O)c2c(C)c(-n3nccn3)sc21)OCCO [Compound I-089, (S)-2-(1-((R)-2-(5-fluoro-2-methoxyphenyl)-2-(2-hydroxyethoxy)ethyl)-5-methyl-2,4-dioxo-6-(2H-1,2,3-triazol-2-yl)-1,4-dihydrothieno[2,3-d]pyrimidin-3 (2H)-yl)-N-isopropyl-N-methylpropanamide] | > 0.4 | A (from 70% to 84% control of Asian soybean rust) | B (from 50 to 69% control of barley powdery mildew) | AA (≥85% control of wheat leaf rust) | > 0.4 | > 0.4 | ≥ 50 | AA (≥85% control of cucumber powdery mildew) | 0.08 (≈ 0.136 µM) | C (from 25 to 49% control of wheat septoria leaf blotch) | ≥ 10 | 2 (≈ 3.4 µM) | 0.08 (≈ 0.136 µM) | D (<25% control of wheat fusarium head blight) | –
COCCO[C@@H](Cn1c(=O)n([C@H](C)C(=O)NC(C)C)c(=O)c2c(C)c(-n3cccn3)sc21)c1cc(F)ccc1OC [Compound I-310, (R)-2-(1-((R)-2-(5-fluoro-2-methoxyphenyl)-2-(2-methoxyethoxy)ethyl)-5-methyl-2,4-dioxo-6-(1H-pyrazol-1-yl)-1,4-dihydrothieno[2,3-d]pyrimidin-3 (2H)-yl)-N-isopropylpropanamide] | – | C (from 25 to 49% control of Asian soybean rust) | AA (≥85% control of barley powdery mildew) | C (from 25 to 49% control of wheat leaf rust) | – | – | – | AA (≥85% control of cucumber powdery mildew) | – | B (from 50 to 69% control of wheat septoria leaf blotch) | – | – | – | C (from 25 to 49% control of wheat fusarium head blight) | IC90 (Botrtyis cinerea (Bc); ≥90% growth inhibition, 48 hours, vs 2% DMSO control, read-out: Compound Concentration (ppm) sufficient for ≥90% inhibition of Bc): 2 µg/mL (≈ 3.4 µM); IC90 ([2]; ≥90% growth inhibition, 48 hours, vs 2% DMSO control, read-out: Compound Concentration (ppm) sufficient for ≥90% inhibition of Cg): 2 µg/mL (≈ 3.4 µM); IC90 ([4]; ≥90% growth inhibition, 48 hours, vs 2% DMSO control, read-out: Compound Concentration (ppm) sufficient for ≥90% inhibition of Pc): > 50 µg/mL; IC90 ([5]; ≥90% growth inhibition, 48 hours, vs 2% DMSO control, read-out: Compound Concentration (ppm) sufficient for ≥90% inhibition of Fm): 0.08 µg/mL (≈ 0.136 µM); IC90 (Septoria tritici (St); ≥90% growth inhibition, 48 hours, vs 2% DMSO control, read-out: Compound Concentration (ppm) sufficient for ≥90% inhibition of St): > 50 µg/mL; IC90 (Diplodia maydis (Dm); ≥90% growth inhibition, 48 hours, vs 2% DMSO control, read-out: Compound Concentration (ppm) sufficient for ≥90% inhibition of Dm): ≥ 2 µg/mL; IC90 (Rhizoctonia solani (Rs); ≥90% growth inhibition, 48 hours, vs 2% DMSO control, read-out: Compound Concentration (ppm) sufficient for ≥90% inhibition of Rs): 0.08 µg/mL (≈ 0.136 µM)

Reference: US10941157B2, “Pesticidal compositions and uses thereof” (Gilead Apollo, LLC, priority 2015, dated 2021)
